The target in the experiment is T1, human CRF2α receptor (Homo sapiens, UniProt Q13324).
T1 construct: expressed in transfected cells; host or cells: TeloHEAC
T1 sequence (Q13324 1-411): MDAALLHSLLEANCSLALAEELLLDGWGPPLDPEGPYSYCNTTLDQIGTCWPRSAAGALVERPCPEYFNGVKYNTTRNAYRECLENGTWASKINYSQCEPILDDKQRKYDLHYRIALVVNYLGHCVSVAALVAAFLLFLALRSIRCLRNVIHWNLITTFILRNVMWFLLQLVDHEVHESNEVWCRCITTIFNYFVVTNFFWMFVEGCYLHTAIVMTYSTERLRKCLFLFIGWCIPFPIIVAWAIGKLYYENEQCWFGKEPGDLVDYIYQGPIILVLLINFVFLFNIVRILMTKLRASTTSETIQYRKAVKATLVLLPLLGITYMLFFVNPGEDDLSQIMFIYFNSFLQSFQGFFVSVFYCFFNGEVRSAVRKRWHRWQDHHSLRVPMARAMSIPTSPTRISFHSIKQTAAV
Description: cAMP agonism at human CRF2 α receptor in TeloHEAC cells (Example 7). Format: cell-based. An outline of the steps: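 Steps: thaw and wash cells; suspend in 1×HBSS, 20 mM HEPES, 0 or 0.1% HSA, 2 mM IBMX; add compound, 30 min RT; lyse with HTRF reagents, 1 h; read 665/620 nm. EC50 calculated, E% versus 1000 nM UCN2.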

The mark [1] stands for this setting: cAMP HTRF, TeloHEAC cells stably expressing human CRF2 α, 0% HSA, read-out: EC50 [nM], 0% HSA.
Where [2] appears, read: cAMP HTRF, TeloHEAC cells stably expressing human CRF2 α, 0.1% HSA, read-out: EC50 [nM], 0.1% HSA.

Structures are written as SMILES. Like-named read-outs stand apart in the source and are kept apart here. Starred links: 1 amine or outer side, 2 acyl side, 3 side chain; linkers in the order of their positions; H or OH if unused. Non-standard residues stand in square brackets, D forms with d. Residues, ends and D or L forms follow the SMILES beside them. Groups on a side chain read outwards from the residue. *: point of attachment. C18 diacid = O=C(O)CCCCCCCCCCCCCCCCC(=O)*; γGlu = O=C(O)[C@H](CCC(=O)[*:2])N[*:1]; AEEA = NCCOCCOCC(=O)O; Aib = CC(C)(N)C(=O)O

Turning to `CC[C@H](C)[C@H](N)C(=O)N[C@H](C(=O)N[C@@H](CC(C)C)C(=O)N[C@@H](CO)C(=O)N[C@@H](CC(C)C)C(=O)N[C@@H](CC(=O)O)C(=O)N[C@@H](C(=O)N1CCC[C@H]1C(=O)N[C@H](C(=O)N[C@@H](CCCCN)C(=O)N[C@@H](CC(C)C)C(=O)N[C@@H](CCCCNC(=O)COCCOCCNC(=O)COCCOCCNC(=O)CC[C@H](NC(=O)CCCCCCCCCCCCCCCCC(=O)O)C(=O)O)C(=O)N[C@@H](CCC(N)=O)C(=O)N[C@H](C(=O)N[C@@H](CC(C)C)C(=O)N[C@@H](CC(C)C)C(=O)N[C@@H](CCCCN)C(=O)N[C@@H](CCC(N)=O)C(=O)N[C@@H](CCC(=O)O)C(=O)N[C@@H](CCCNC(=N)N)C(=O)N[C@@H](CCC(N)=O)C(=O)N[C@@H](CCCCN)C(=O)NC(C)(C)C(=O)N[C@@H](CCC(N)=O)C(=O)N[C@@H](CCCNC(=N)N)C(=O)N[C@@H](CCC(=O)O)C(=O)N[C@@H](CCC(N)=O)C(=O)N[C@@H](C)C(=O)N[C@@H](CCC(=O)O)C(=O)N[C@@H](CCCCN)C(=O)N[C@@H](CC(N)=O)C(=O)N[C@@H](CCCCN)C(=O)N[C@@H](CCC(N)=O)C(=O)N[C@H](C(=O)N[C@@H](CC(C)C)C(=O)N[C@@H](CCC(=O)O)C(=O)N[C@@H](CCCNC(=N)N)C(=O)N[C@H](C(N)=O)C(C)C)[C@@H](C)CC)[C@@H](C)CC)[C@@H](C)CC)C(C)C)C(C)C` [compound 133] (H-IVLSLD[dV]PIKLK([AEEA-AEEA-γGlu-C18 diacid])QILLKQERQK[Aib]QREQAEKNKQILERV-NH2; N-terminus assumed), the EC50 (in general, the midpoint of the concentration-response curve) is 0.09 nM under setting [1] and 3.19 nM under setting [2].

Turning to `CC[C@H](C)[C@H](NC(=O)[C@H](CCC(N)=O)NC(=O)[C@H](CCCCN)NC(=O)[C@H](CC(N)=O)NC(=O)[C@@H](NC(=O)[C@H](CCCCN)NC(=O)[C@H](C)NC(=O)[C@H](CCCCN)NC(=O)[C@H](CCC(N)=O)NC(=O)[C@H](CCCNC(=N)N)NC(=O)[C@H](CCC(N)=O)NC(=O)[C@H](CCCCN)NC(=O)[C@H](CCCCN)NC(=O)[C@H](CCC(N)=O)NC(=O)[C@H](CCCCN)NC(=O)[C@H](CCC(=O)O)NC(=O)[C@H](CCC(N)=O)NC(=O)[C@H](CCCCN)NC(=O)[C@H](CC(C)C)NC(=O)[C@H](CC(C)C)NC(=O)[C@@H](NC(=O)[C@H](CCC(N)=O)NC(=O)[C@H](CCCCNC(=O)COCCOCCNC(=O)COCCOCCNC(=O)CC[C@H](NC(=O)CCCCCCCCCCCCCCCCC(=O)O)C(=O)O)NC(=O)[C@@H](NC(=O)[C@H](CCCCN)NC(=O)[C@@H](NC(=O)[C@@H]1CCCN1C(=O)[C@@H](NC(=O)[C@H](CC(=O)O)NC(=O)[C@H](CC(C)C)NC(=O)[C@H](CO)NC(=O)[C@H](CC(C)C)NC(=O)[C@@H](NC(=O)[C@@H](N)Cc1ccccc1)[C@@H](C)O)C(C)C)[C@@H](C)O)[C@@H](C)CC)[C@@H](C)CC)[C@@H](C)O)C(=O)N[C@@H](CC(C)C)C(=O)N[C@@H](CCC(=O)O)C(=O)N[C@@H](CCCNC(=N)N)C(=O)N[C@H](C(N)=O)C(C)C` [compound 143] (H-FTLSLDVPTKIK([AEEA-AEEA-γGlu-C18 diacid])QILLKQEKQKKQRQKAKTNKQILERV-NH2), the EC50 runs as follows: (EC50 [nM], 0% HSA) 1.44 nM; (EC50 [nM], 0.1% HSA) 93.8 nM.

In the case of `CC[C@H](C)[C@H](NC(=O)[C@H](CCC(N)=O)NC(=O)[C@H](CCCCN)NC(=O)[C@H](CC(N)=O)NC(=O)[C@@H](NC(=O)[C@H](CCCCN)NC(=O)[C@H](C)NC(=O)[C@H](CCCCN)NC(=O)[C@H](CCC(N)=O)NC(=O)[C@H](CCCNC(=N)N)NC(=O)[C@H](CCC(N)=O)NC(=O)[C@H](CCCCN)NC(=O)[C@H](CCCCN)NC(=O)[C@H](CCC(N)=O)NC(=O)[C@H](CCCNC(=N)N)NC(=O)[C@H](CCC(=O)O)NC(=O)[C@H](CCC(N)=O)NC(=O)[C@H](CCCCN)NC(=O)[C@H](CC(C)C)NC(=O)[C@H](CC(C)C)NC(=O)[C@@H](NC(=O)[C@H](CCC(N)=O)NC(=O)[C@H](CCCCNC(=O)COCCOCCNC(=O)COCCOCCNC(=O)CC[C@H](NC(=O)CCCCCCCCCCCCCCCCC(=O)O)C(=O)O)NC(=O)[C@@H](NC(=O)[C@H](CCCCN)NC(=O)[C@@H](NC(=O)[C@@H]1CCCN1C(=O)[C@@H](NC(=O)[C@H](CC(=O)O)NC(=O)[C@H](CC(C)C)NC(=O)[C@H](CO)NC(=O)[C@H](CC(C)C)NC(=O)[C@@H](NC(=O)[C@@H](N)Cc1ccccc1)[C@@H](C)O)C(C)C)[C@@H](C)O)[C@@H](C)CC)[C@@H](C)CC)[C@@H](C)O)C(=O)N[C@@H](CC(C)C)C(=O)N[C@@H](CCC(=O)O)C(=O)N[C@@H](CCCNC(=N)N)C(=O)N[C@H](C(N)=O)C(C)C` [compound 144] (H-FTLSLDVPTKIK([AEEA-AEEA-γGlu-C18 diacid])QILLKQERQKKQRQKAKTNKQILERV-NH2), the EC50 under setting [1] is 1.36 nM and the EC50 under setting [2] is 76.3 nM.

In the case of `CC[C@H](C)[C@H](NC(=O)[C@H](CCC(N)=O)NC(=O)[C@H](CCCCN)NC(=O)[C@H](CC(N)=O)NC(=O)[C@H](CCCCN)NC(=O)[C@H](CCCCN)NC(=O)[C@H](C)NC(=O)[C@H](CCCCN)NC(=O)[C@H](CCC(N)=O)NC(=O)[C@H](CCCNC(=N)N)NC(=O)[C@H](CCC(N)=O)NC(=O)[C@H](CCCCN)NC(=O)[C@H](CCCCN)NC(=O)[C@H](CCC(N)=O)NC(=O)[C@H](CCCNC(=N)N)NC(=O)[C@H](CCC(=O)O)NC(=O)[C@H](CCC(N)=O)NC(=O)[C@H](CCCCN)NC(=O)[C@H](CC(C)C)NC(=O)[C@H](CC(C)C)NC(=O)[C@@H](NC(=O)[C@H](CCC(N)=O)NC(=O)[C@H](CCCCNC(=O)COCCOCCNC(=O)COCCOCCNC(=O)CC[C@H](NC(=O)CCCCCCCCCCCCCCCCC(=O)O)C(=O)O)NC(=O)[C@@H](NC(=O)[C@H](CCCCN)NC(=O)[C@@H](NC(=O)[C@@H]1CCCN1C(=O)[C@@H](NC(=O)[C@H](CC(=O)O)NC(=O)[C@H](CC(C)C)NC(=O)[C@H](CO)NC(=O)[C@H](CC(C)C)NC(=O)[C@@H](NC(=O)[C@@H](N)Cc1ccccc1)[C@@H](C)O)C(C)C)[C@@H](C)O)[C@@H](C)CC)[C@@H](C)CC)C(=O)N[C@@H](CC(C)C)C(=O)N[C@@H](CCC(=O)O)C(=O)N[C@@H](CCCNC(=N)N)C(=O)N[C@H](C(N)=O)C(C)C` [compound 145] (H-FTLSLDVPTKIK([AEEA-AEEA-γGlu-C18 diacid])QILLKQERQKKQRQKAKKNKQILERV-NH2), the EC50 is, setting by setting: under setting [1], 1.46 nM; under setting [2], 96.9 nM.

With `CC[C@H](C)[C@H](NC(C)=O)C(=O)N[C@H](C(=O)N[C@@H](CC(C)C)C(=O)N[C@@H](CO)C(=O)N[C@@H](CC(C)C)C(=O)N[C@@H](CC(=O)O)C(=O)N[C@H](C(=O)N1CCC[C@H]1C(=O)N[C@H](C(=O)NCC(=O)N[C@@H](CC(C)C)C(=O)N[C@@H](CCCCNC(=O)COCCOCCNC(=O)COCCOCCNC(=O)CC[C@H](NC(=O)CCCCCCCCCCCCCCCCC(=O)O)C(=O)O)C(=O)N[C@@H](CCC(N)=O)C(=O)N[C@H](C(=O)N[C@@H](CC(C)C)C(=O)N[C@@H](CC(C)C)C(=O)N[C@@H](CCC(=O)O)C(=O)N[C@@H](CCC(N)=O)C(=O)N[C@@H](CCC(=O)O)C(=O)N[C@@H](CCCCN)C(=O)N[C@@H](CCC(N)=O)C(=O)N[C@@H](CCC(=O)O)C(=O)N[C@@H](CCCCN)C(=O)N[C@@H](CCC(=O)O)C(=O)N[C@@H](CCCCN)C(=O)N[C@@H](CCC(N)=O)C(=O)N[C@@H](CCC(N)=O)C(=O)N[C@@H](C)C(=O)N[C@@H](CCC(=O)O)C(=O)N[C@H](C(=O)N[C@@H](CC(N)=O)C(=O)N[C@@H](C)C(=O)N[C@@H](CCC(N)=O)C(=O)N[C@H](C(=O)N[C@@H](CC(C)C)C(=O)N[C@@H](C)C(=O)N[C@@H](CCC(N)=O)C(=O)N[C@H](C(N)=O)C(C)C)[C@@H](C)CC)[C@@H](C)O)[C@@H](C)CC)[C@@H](C)CC)C(C)C)C(C)C` [compound 153] (Ac-IVLSLDVPIGLK([AEEA-AEEA-γGlu-C18 diacid])QILLEQEKQEKEKQQAETNAQILAQV-NH2), the EC50 under setting [1] amounted to 33.7 nM.

For the origin of these results see patent US12679878B2, “CRF2 receptor agonists and their use in therapy” (SANOFI, priority 2020, dated 2026).
